Several values for one entry are separate records, joined by “and”; a condition that tells them apart may be missing. Equal values may be shown once. Read-outs that look alike come from different tables or passages of the source. Marks after values point to notes of the source that are not given here.
Experiments:
[1] = Drug-drug interaction: exposure on co-administration with Compound 2
HCV genotype 1a replicon [2] = assay: Biological Example 3: HCV genotype 1a replicon assay, EC50; format: cell-based
Protocol: The HCV genotype 1a replicon cell line used in this study was described previously. The cells were grown in cell culture medium containing Dulbecco's Modified Eagle Medium (DMEM) with GlutaMAX (Gibco, Carlsbad, Calif., Cat#10569-044), supplemented with 10% FBS (HyClone, Logan, Utah, Cat#SH30071.03), 100 Units/mL Penicillin, 100 μg/mL Streptomycin (Gibco, Carlsbad, Calif., Cat#15140-122), and 0.1 mM non-essential amino acids (Gibco, Carlsbad, Calif., Cat#11140-050). Replicon cells were maintained in 0.5 mg/mL Geneticin (Invitrogen, Carlsbad, Calif., Cat#10131-035) to prevent the loss of HCV replicon. The cells were passaged every 3-4 days before reaching confluency.
(§1) [formula] where XC is the fluorescence signal from the compound-treated well; MB is the average fluorescence signal from puromycin-treated wells; MD is the average fluorescence signal from DMSO-treated wells. The anti-HCV replication activity was determined by the luminescence signal generated from the reporter renilla luciferase of the HCV replicon. The percent inhibition on HCV replicon was calculated using equation 1, where XC is the luminescence signal from compound-treated well; MB is average luminescence signal from the ITMN-191-treated wells; MD is the average luminescence signal from DMSO-treated wells.
(§2) Both CC50 and EC50 values were obtained using Pipeline Pilot 5.0 software package (Accelrys, San Diego, Calif.) by nonlinear regression fitting of experimental data to equation 2: […]

HCV 1b replicon system = assay: Biological Example 5: antiviral combination studies with Compound 6 (MacSynergy II); format: cell-based; details: in combination with Compound 6
[3] = tested on: Huh-7 cells carrying a HCV genotype 1a replicon; assay: Biological Example 3: cytotoxicity in combination studies (MacSynergy II); details: in combination with Compound 4
GT-1b Huh-lunet cells = assay: Biological Example 4: antiviral combination studies with Compound 5 (MacSynergy II); format: cell-based, HCV; details: in combination with Compound 5, 1b replicon cells
[4] = Biological Example 3: cytotoxicity (calcein AM), CC50; format: cell-based; details: human, Huh-7 cells carrying a HCV genotype 1a replicon; HCV genotype 1a replicon cells; calcein AM
Protocol: (§3) The HCV replicon assay was a multiplex assay which can assess both cytotoxicity and anti-replicon activity from the same well. The CC50 assay was performed first.
(§4) The cytotoxicity effect was determined by calcein AM conversion to fluorescent product. The percent cytotoxicity was calculated by equation 1:
as §1, §2

[5] = tested on: Genotype 1b replicon cells; assay: Biological Example 6: compound concentration required to suppress replicon RNA by 1-1.5 log over 6 days (QRT-PCR); format: cell-based, HCV; details: 6 day assay
Protocol: Flasks were incubated at 37° C., media and compounds were refreshed every two days. After 6 days of incubation the replicon cells were collected for RNA extraction and replicon RNA QRT-PCR analysis.

HCV genotype 1a replicon [6] = assay: Biological Example 3: antiviral combination studies with Compound 4 (MacSynergy II); details: in combination with Compound 4
[7] = tested on: GT1b and GT1a mutant replicons; assay: Biological Example 8: summary of cross resistance of mutant replicons; format: cell-based, HCV
Protocol: (§5) GT1b and GT1a replicons carrying Renilla Luciferase reporter were used to generate the mutant replicons. The mutations were introduced into the replicon construct by site-directed mutagenesis and confirmed by sequencing. Mutant replicon RNAs were generated from DNA by in vitro transcription and transfected into Huh-7 Lunet or C1 cells
(§6) Compounds were serially diluted 1:3 in 100% DMSO (Sigma). These serial dilutions were added to the cells at a 1:200 dilution to achieve a final concentration of 0.5% DMSO in a total volume of 200 μL. […] EC50 values were calculated using Prism.
(§7) For comparison, a fold change of 0-3 is considered “sensitive”, a fold change of 3-10 is considered “low”, a fold change of 10-50 is considered “medium” and a fold change of greater than […] is considered “high”.

[8] = human; 800 mg/day; cited from earlier work
[9] = tested on: NS3 GT1b mutant replicons; format: cell-based, HCV
Protocol: as §5, §6, §7

[10] = tested on: NS3 GT1a mutant replicons; format: cell-based, HCV
Protocol: as §5, §6, §7

[11] = tested on: Huh-7 cells carrying a HCV genotype 1a replicon; assay: Biological Example 3: cytotoxicity (calcein AM), CC50; format: cell-based; details: HCV genotype 1a replicon cells; IFN-α in Units (U) per milliliter (mL)
Protocol: as §3, §4, §1, §2

[12] = Hepatitis C virus, 72 h, 3 days, read-out: EC50
[13] = all single NS3 PI-resistant mutants
[14] = triple class mutants that confer resistance to PI, NS5A and Compound 1

## Fc1ccccc1-c1nc2ccn(Cc3ccc(-c4ccc(C(F)(F)F)cc4C(F)(F)F)nn3)cc-2n1 [Compound 1, 5-((6-(2,4-bis(trifluoromethyl)phenyl)pyridazin-3-yl)methyl)-2-(2-fluorophenyl)-5H-imidazo[4,5-c]pyridine]
[1]
  increase of exposure when combined with Compound 2: 2-3 ×
HCV genotype 1a replicon [2]; [12]
  EC50: 0.019 ± 0.008 µM
HCV 1b replicon system
  Antagonism Volume: −17 ± 0.7 nM^2
  Interaction: Minor Synergy
  Synergy Volume: 34 nM^2 and 34 ± 9.9 nM^2
[3]
  Antagonism Volume (cytotoxicity): 0 ± 1 nM^2%
  Interaction (cytotoxicity): Additivity (Additivity: ≦25 and >−25 nM^2%)
  Synergy Volume (cytotoxicity): 13 ± 11 nM^2%
GT-1b Huh-lunet cells
  Antagonism Volume: 0 ± 0 nM^2
  Synergy Volume: 70 ± 26 nM^2
[4]
  CC50 at 3 days: > 44.4 µM
[5]
  Compound concentration able to induce replicon RNA 1-1.5 log drop: 10 nM
HCV genotype 1a replicon [6]
  Antagonism Volume: −1 ± 2 nM^2%
  Synergy Volume: 34 ± 26 nM^2%
[7]; [13]
  susceptibility of mutants: full susceptibility

## NC(=O)c1ncn([C@@H]2O[C@H](CO)[C@@H](O)[C@H]2O)n1 [Ribavirin, 1-β-D-ribofuranosyl-1H-1,2,4-Triazole-3-carboxamide, reference compound]
HCV genotype 1a replicon [2]; [12]
  EC50: 36.5 ± 17.5 µM
HCV 1b replicon system
  Antagonism Volume: −0.5 ± 0.1 nM^2
  Interaction: Moderate Synergy
  Synergy Volume: 61 nM^2 and 61 ± 0.5 nM^2
[8]
  steady-state plasma concentration: 6 to 11 µM
GT-1b Huh-lunet cells
  Antagonism Volume: −12 ± 9 nM^2
  Interaction: Additive
  Synergy Volume: 12 ± 8 nM^2
[4]
  CC50 at 3 days: > 88.8 µM
HCV genotype 1a replicon [6]
  Antagonism Volume: −43 nM^2% and −43 ± 20 nM^2%
  Synergy Volume: 1 ± 1 nM^2%
[7]; [13]
  susceptibility of mutants: full susceptibility
[7]; [14]
  susceptibility of mutants: susceptible

## IFN-α [reference compound]
HCV genotype 1a replicon [2]; IFN-α in Units (U) per milliliter (mL)
  EC50: 1.4 ± 0.3^b U/mL
HCV 1b replicon system
  Antagonism Volume: 0.0 ± 0.0 nM^2
  Interaction: Minor Synergy
  Synergy Volume: 32 nM^2 and 32 ± 1.4 nM^2
[9]; mutant A156D
  fold change in EC50 vs wild-type GT1b: 0.6 fold
[9]; mutant A156G
  fold change in EC50 vs wild-type GT1b: 1.1 fold
[9]; mutant A156T
  fold change in EC50 vs wild-type GT1b: 0.8 fold
[9]; mutant A156V
  fold change in EC50 vs wild-type GT1b: 0.9 fold
[9]; mutant D168A
  fold change in EC50 vs wild-type GT1b: 0.9 fold
[9]; mutant D168E
  fold change in EC50 vs wild-type GT1b: 0.9 fold
[9]; mutant D168E + L31V + Y448H
  fold change in EC50 vs wild-type GT1b: 0.7 fold
[9]; mutant D168E + Y93H + Y448H
  fold change in EC50 vs wild-type GT1b: 0.4 fold
[9]; mutant D168G
  fold change in EC50 vs wild-type GT1b: 0.6 fold
[9]; mutant D168H
  fold change in EC50 vs wild-type GT1b: 0.8 fold
[9]; mutant D168N
  fold change in EC50 vs wild-type GT1b: 1.0 fold
[9]; mutant D168T
  fold change in EC50 vs wild-type GT1b: 0.9 fold
[9]; mutant D168V
  fold change in EC50 vs wild-type GT1b: 1.5 fold
[9]; mutant D168V + L31V + Y448H
  fold change in EC50 vs wild-type GT1b: 0.5 fold
[9]; mutant D168V + Y93H + Y448H
  fold change in EC50 vs wild-type GT1b: 0.6 fold
[9]; mutant D168Y
  fold change in EC50 vs wild-type GT1b: 1.3 fold
[9]; mutant L31V + D168E
  fold change in EC50 vs wild-type GT1b: 1.3 fold
[9]; mutant L31V + D168V
  fold change in EC50 vs wild-type GT1b: 1.2 fold
[9]; mutant R155C
  fold change in EC50 vs wild-type GT1b: 0.7 fold
[9]; mutant R155G
  fold change in EC50 vs wild-type GT1b: 1.1 fold
[9]; mutant R155K
  fold change in EC50 vs wild-type GT1b: 1.5 fold
[9]; mutant R155L
  fold change in EC50 vs wild-type GT1b: 1.1 fold
[9]; mutant R155Q
  fold change in EC50 vs wild-type GT1b: 0.6 fold
[9]; mutant R155W
  fold change in EC50 vs wild-type GT1b: 0.5 fold
[9]; mutant Y93H + D168E
  fold change in EC50 vs wild-type GT1b: 1.1 fold
[9]; mutant Y93H + D168V
  fold change in EC50 vs wild-type GT1b: 0.7 fold
[10]; mutant A156T
  fold change in EC50 vs wild-type GT1a: 0.1 fold
[10]; mutant D168A
  fold change in EC50 vs wild-type GT1a: 1.4 fold
[10]; mutant D168E
  fold change in EC50 vs wild-type GT1a: 2.1 fold
[10]; mutant D168G
  fold change in EC50 vs wild-type GT1a: 0.8 fold
[10]; mutant D168H
  fold change in EC50 vs wild-type GT1a: 0.9 fold
[10]; mutant D168N
  fold change in EC50 vs wild-type GT1a: 1.1 fold
[10]; mutant D168V
  fold change in EC50 vs wild-type GT1a: 1.0 fold
[10]; mutant D168Y
  fold change in EC50 vs wild-type GT1a: 1.2 fold
[10]; mutant R155I
  fold change in EC50 vs wild-type GT1a: 0.6 fold
[10]; mutant R155K
  fold change in EC50 vs wild-type GT1a: 0.7 fold
[10]; mutant R155K + L31M
  fold change in EC50 vs wild-type GT1a: 0.2 fold
[10]; mutant R155K + M28T
  fold change in EC50 vs wild-type GT1a: 1.1 fold
[10]; mutant R155K + Q30H + Y448H
  fold change in EC50 vs wild-type GT1a: 1.9 fold
[10]; mutant R155K + Q30R
  fold change in EC50 vs wild-type GT1a: 1.6 fold
[10]; mutant R155K + Y93H
  fold change in EC50 vs wild-type GT1a: 0.3 fold
[10]; mutant R155K + Y488H (second line, r26)
  fold change in EC50 vs wild-type GT1a: 0.7 fold
[10]; mutant R155M
  fold change in EC50 vs wild-type GT1a: 0.3 fold
[10]; mutant R155S
  fold change in EC50 vs wild-type GT1a: 0.1 fold
[10]; mutant R155T
  fold change in EC50 vs wild-type GT1a: 0.2 fold
[10]; mutant R155W
  fold change in EC50 vs wild-type GT1a: 0.6 fold
[10]; mutant R155k + Q30H
  fold change in EC50 vs wild-type GT1a: 1.4 fold
[3]
  Antagonism Volume (cytotoxicity): −7 ± 13 nM^2%
  Interaction (cytotoxicity): Additivity (Additivity: ≦25 and >−25 nM^2%)
  Synergy Volume (cytotoxicity): 8 ± 12 nM^2%
[11]
  CC50: >50^b U/mL
HCV genotype 1a replicon [6]
  Antagonism Volume: 0 ± 0 nM^2%
  Interaction: Additivity (Additivity: ≦25 and >−25 nM^2%)
  Synergy Volume: 12 ± 6 nM^2%
[7]; [13]
  susceptibility of mutants: full susceptibility
[7]; [14]
  susceptibility of mutants: susceptible

Source: patent US9452154B2, “Methods for treating HCV” (Gilead Sciences, Inc., priority 2010, dated 2016)
